Data reported in patent US20070293582A1, “Epinephrine dosing regimens comprising buccal, lingual or sublingual and injectable dosage forms” (priority 2006, published 2007).
Read-outs that look alike come from different tables or passages of the source.

Test system: patient experiencing an allergic emergency (symptoms of anaphylaxis)
Settings: approximately 5 minutes apart
Description: (§1) A patient experiencing an allergic emergency initiates treatment at the onset of shortness of breath by self administering 40 mg of epinephrine free base in a buccal dosage form.
as §1
A patient experiencing an allergic emergency initiates treatment at the onset of shortness of breath by self administering 40 mg of epinephrine free base in a lingual dosage form.

Measured: patient's symptoms of anaphylaxis

CNC[C@H](O)c1ccc(O)c(O)c1 [epinephrine]
relieved: Example 1: 40 mg buccal, second 40 mg buccal, then first auto-injected 0.3 mg dose, outcome within about five minutes after the first injectable dose | Example 2: 40 mg buccal, 60 mg buccal, then two auto-injected 0.3 mg doses, outcome within about five minutes after the second injectable dose | Example 3: 40 mg lingual, 60 mg lingual, then two auto-injected 0.3 mg doses, outcome within about five minutes after the second injectable dose
